Data on 19 compounds can be found in ChEMBL document CHEMBL1201862, “PubChem BioAssay data set” (2004).

Test systems include XF498; LXFL 529; M19-MEL; DMS-273; HOP-18; DMS-114; 786-0; BT-549.
Common to all, as to assay: growth of human tumour cells (NCI), 48 h

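Assay format: 96-well plates, 48-hour exposure. GI50: concentration for 50% inhibition of growth.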 Active and inactive are the calls of the source. No stated cut-off is given here; in the data, active = GI50 up to about 1.1 µM and inactive = higher. Where only a bound is given, the exact number is not on record here.

For `[O-][S+]1c2ccccc2N=C(c2ccc3ccccc3c2)CC1c1ccccc1` (stereo not drawn), the GI50 in the experiment on XF498 is 23.9 µM (inactive); with LXFL 529, 16.1 µM (inactive); with M19-MEL, 17.9 µM (inactive); with DMS-273 it was 38.6 µM (inactive).
In the case of `COC(=O)C(NC(=O)c1ccccc1)C(c1ccc(Cl)cc1)P(=O)(OC)OC` (stereo not drawn), the GI50 in the experiment on XF498, in the experiment with LXFL 529, with M19-MEL and in the experiment on DMS-273 was > 100 µM (inactive) in each case.
Consider `Cc1ccc2nc3c(C(=O)NCCN(C)C)cccc3cc2c1`, for which the GI50 with XF498 was 1.8 µM (inactive); in the experiment with HOP-18 it was 1.46 µM (inactive); in the experiment on DMS-114, 1.53 µM (inactive); with M19-MEL, 1.95 µM (inactive); in the experiment with DMS-273, 1.5 µM (inactive).
`Cc1cc(=O)oc2cc(OCC(O)COC(C)C)ccc12` (stereo not drawn): the GI50 in the experiment on 786-0 was > 100 µM (inactive).
For the compound `CC(=O)O[C@H]1CC[C@H]2[C@@H]3CC[C@H]4Nc5c(cnn5S(C)(=O)=O)C[C@]4(C)[C@H]3CC[C@]12C`, in the experiment on BT-549, the GI50 is 27.5 µM (inactive).
Regarding `COC(=O)Nc1nc2cc(C(=O)c3ccc[nH]3)ccc2[nH]1`, the GI50 in the experiment on 786-0 was 1.69 µM (inactive); in the experiment with BT-549, > 100 µM (inactive).
On to `SC1=NC2=C(CSC/C2=C\c2cccc(Br)c2)C(c2cccc(Br)c2)N1` (stereo not drawn), for which the GI50 with 786-0 is 66.8 µM (inactive).
For `CC(C)C(/C=C/c1ccc(Cl)cc1)=N\NC(=O)N/N=C(/C=C/c1ccc(Cl)cc1)C(C)C`, the figures for the GI50 with 786-0 and in the experiment with BT-549 were 17.6 µM (inactive) and 34.4 µM (inactive), respectively.
Turning to `O=S1(=O)C[C@@H](NCc2ccccc2)[C@H](NCc2ccccc2)C1`, in the experiment on BT-549, the GI50 is > 100 µM (inactive).
Turning to `CN1C2CCC1C(CO)C(=O)C2` (stereo not drawn), in the experiment on BT-549, the GI50 was > 100 µM (inactive).
The same measure, in the same setting: the same measure for `CN1C2CC(=O)CC1[C@H](O)[C@@H]2O`: > 100 µM (inactive).
`CCOc1ccc(O)cc1[P+](c1ccccc1)(c1ccccc1)c1ccccc1`: the GI50 in the experiment with 786-0 was 7.24 µM (inactive); with XF498, 1.16 µM (inactive); in the experiment on LXFL 529, 1.37 µM (inactive); in the experiment with HOP-18 it was 2.91 µM (inactive); with M19-MEL it was 3.05 µM (inactive); with DMS-273, 2.16 µM (inactive).
For the compound `CCOC(=O)C(=NN(C)c1ncccc1N)C(=O)OCC`, the results for the GI50 in the experiment with 786-0 and in the experiment on BT-549 were 29.6 µM (inactive) and > 100 µM (inactive), respectively.
Turning to `Cc1ccc(C)c(NC(=O)/C(=N\N)C(c2cnc3ccc([N+](=O)[O-])cc3n2)[N+](=O)[O-])c1` (stereo not drawn), the GI50 in the experiment with 786-0 and in the experiment on BT-549 was > 100 µM (inactive) each time.
With `CCOC(=O)N1CCN(c2ccc3c(C)cc(C)nc3n2)CC1`, the GI50 with 786-0 and in the experiment with BT-549 was > 100 µM (inactive) in each case.
For the compound `CC/C=C/C(CC)C/C(C)=C\[C@]1(CC)C[C@H](CC)[C@H](CC(=O)O)OO1` (stereo partly drawn), the GI50 in the experiment with 786-0 was 1.31 µM (inactive).
For the compound `Cc1nc2c(cc1C(=O)N/N=C/c1ccc([N+](=O)[O-])cc1)c(=O)n(C)c(=O)n2C`, the GI50 was 26.5 µM (inactive) in the experiment on 786-0 and 30.5 µM (inactive) in the experiment on BT-549.
With `COc1ccc2c3c1O[C@H]1C[C@@H](O)C=C[C@@]31CCN(C)C2` [GALANTAMINE], the GI50 in the experiment on XF498, in the experiment on HOP-18, with DMS-114, in the experiment on M19-MEL and with DMS-273 was > 150 µM (inactive) in each case.
In the case of `O=c1cc[nH]c(=O)[nH]1` [URACIL], the GI50 in the experiment on XF498 was 4.23 µM (inactive); in the experiment with HOP-18 it was > 1000 µM (inactive); with DMS-114 it was 553 µM (inactive); with M19-MEL it was 279 µM (inactive); with DMS-273 it was 403 µM (inactive).
